ChEMBL document CHEMBL2202954, “The effect of PLC-γ2 inhibitors on the growth of human tumour cells” (2012)

Tests used:
Format in all cases: functional
T47D = experiment: Cytotoxicity against human T47D cells assessed as cellular growth at 10 uM by SRB assay
BT-549 = experiment: Cytotoxicity against human BT549 cells assessed as cellular growth at 10 uM by SRB assay
MCF7 = experiment: Cytotoxicity against human MCF7 cells assessed as cellular growth at 10 uM by SRB assay
DU-145 = experiment: Cytotoxicity against human DU145 cells assessed as cellular growth at 10 uM by SRB assay
PC-3 = experiment: Cytotoxicity against human PC3 cells assessed as cellular growth at 10 uM by SRB assay
SN12C = experiment: Cytotoxicity against human SN12C cells assessed as cellular growth at 10 uM by SRB assay
786-0 = experiment: Cytotoxicity against human 786-0 cells assessed as cellular growth at 10 uM by SRB assay
OVCAR-4 = experiment: Cytotoxicity against human OVCAR4 cells assessed as cellular growth at 10 uM by SRB assay
OVCAR-5 = experiment: Cytotoxicity against human OVCAR5 cells assessed as cellular growth at 10 uM by SRB assay
UACC-62 = experiment: Cytotoxicity against human UACC62 cells assessed as cellular growth at 10 uM by SRB assay
SK-MEL-5 = experiment: Cytotoxicity against human SK-MEL-5 cells assessed as cellular growth at 10 uM by SRB assay
SF-295 = experiment: Cytotoxicity against human SF295 cells assessed as cellular growth at 10 uM by SRB assay
HCT-15 = experiment: Cytotoxicity against human HCT15 cells assessed as cellular growth at 10 uM by SRB assay
HCC 2998 = experiment: Cytotoxicity against human HCC2998 cells assessed as cellular growth at 10 uM by SRB assay
NCI-H522 = experiment: Cytotoxicity against human NCI-H522 cells assessed as cellular growth at 10 uM by SRB assay
NCI-H322M = experiment: Cytotoxicity against human NCI-H322M cells assessed as cellular growth at 10 uM by SRB assay
NCI-H23 = experiment: Cytotoxicity against human NCI-H23 cells assessed as cellular growth at 10 uM by SRB assay
SR = experiment: Cytotoxicity against human SR cells assessed as cellular growth at 10 uM by SRB assay
RPMI-8226 = experiment: Cytotoxicity against human RPMI8226 cells assessed as cellular growth at 10 uM by SRB assay

SMILES | Activity (T47D) [%] | Activity (BT-549) [%] | Activity (MCF7) [%] | Activity (DU-145) [%] | Activity (PC-3) [%] | Activity (SN12C) [%] | Activity (786-0) [%] | Activity (OVCAR-4) [%] | Activity (OVCAR-5) [%] | Activity (UACC-62) [%] | Activity (SK-MEL-5) [%] | Activity (SF-295) [%] | Activity (HCT-15) [%] | Activity (HCC 2998) [%] | Activity (NCI-H522) [%] | Activity (NCI-H322M) [%] | Activity (NCI-H23) [%] | Activity (SR) [%] | Activity (RPMI-8226) [%]
COc1ccc2[nH]c(C(=O)NCc3ccccc3)cc2c1 | 85.87 | 104.33 | 83.2 | 111.13 | 102.32 | 97.3 | 103.19 | 93.84 | 116.46 | 91.05 | 97.92 | 131.65 | 94.58 | 104.4 | 90.46 | 90.03 | 89.11 | 91.93 | 90.52
O=C(Nc1ccc(S(=O)(=O)Nc2nccs2)cc1)c1cccs1 | 105.19 | 114.16 | 103.71 | 114.06 | 113.66 | 103.07 | 104.56 | 103.47 | 112.09 | 104.61 | 107.39 | 140.51 | 104.67 | 108.36 | 93.79 | 104.64 | 108.72 | 101.57 | 107.43
Nc1c(C(=O)Nc2ccc(Cl)c(Cl)c2)sc2nc(-c3cccs3)ccc12 | 85.21 | 76.11 | 87.77 | 91.96 | 85.43 | 89.08 | 88.45 | 55.74 | 94.42 | 79.48 | 90.4 | 106.17 | 92.1 | 98.35 | 81.53 | 95.09 | 68.82 | 56.67 | 87.02
Cc1ccc2c(c1)N/C(=C/C(=O)c1ccc(Cl)cc1)C(=O)O2 | 106.85 | 109.64 | 87.54 | 112.1 | 87.2 | 93.53 | 117.98 | 88.88 | 106.86 | 93.82 | 102.04 | 113.06 | 99.12 | 108.44 | 81.38 | 114.58 | 98.65 | 110.86 | 64.3
Cc1ccccc1NC(=O)c1sc2nc3c(cc2c1N)C(=O)CCC3 | 43.92 | 55.62 | 21.69 | 18.31 | 30.33 | 64.53 | 51.56 | 67.57 | 80.78 | 36.9 | 18.64 | 57.18 | 32.76 | 67 | 12.53 | 71.39 | 50.58 | 34.35 | 67.19
Cc1ccc(C2=N/C(=C\c3ccccc3)C(=O)O2)cc1 | 105.06 | 103.91 | 103.73 | 106.2 | 104.18 | 98.61 | 103.22 | 108.84 | 95.31 | 101.68 | 105.32 |  | 100.23 | 99.84 | 95.94 | 114.1 | 101.26 | 88.58 | 102.87
O=C(Nc1ccc2oc(=O)ccc2c1)c1ccc(-c2ccc(Cl)c(Cl)c2)o1 | 81.58 | 77.96 | 86.24 | 92.43 | 73.29 | 86.83 | 88.1 | 91.52 | 99.5 | 75.33 | 87.91 | 102.01 | 72.06 | 100.84 | 70.34 | 91.94 | 97.86 | 89.98 | 70.14
COc1ccc2nc(NC(=O)c3ccc(F)cc3)sc2c1 | 76.48 | 104.05 | 70.13 | 105.68 | 88.31 | 112.11 | 96.69 |  | 97.79 | 88.71 | 89.97 | 54.56 | 85.45 | 87.56 | 75.43 | 75.75 | 85.96 | 104.31 | 87.06
Cc1ccc(C(=O)/C=C2/Nc3ccc(C)cc3OC2=O)cc1 | 104.44 | 108.86 | 96.32 | 118.59 | 101.93 | 96.84 | 111.25 | 96.74 | 120.4 | 96.95 | 100.21 | 132.37 | 110.94 | 102.74 | 100.47 | 106.47 | 99.9 | 100.89 | 56.86
Cc1cc(C)c(NC(=O)c2sc3nc4c(cc3c2N)C(=O)CC(C)(C)C4)c(C)c1 | 88.69 | 109.43 | 99.03 | 127.81 | 87.69 | 103.6 | 103.33 |  | 100.8 | 96.9 | 89.79 | 81.11 | 96.97 | 105.78 | 100.45 | 115.34 | 94.31 | 103.93 | 90.56
Clc1ccc(-c2nc(-c3cccs3)no2)cc1 | 66.67 | 111.04 | 36.78 | 119.78 | 103.14 | 97.08 | 99.58 | 65.77 | 108.26 | 89.8 | 90.07 | 92.23 | 47.45 | 32.91 | 92.03 | 113.5 | 92.82 | 85.71 | 93.69
O=C(Nc1nc2ccc(Cl)cc2s1)c1ccc(Cl)cc1 | 93.28 | 106.78 | 99.61 | 114.57 | 89.01 | 122.51 | 101.53 | 100.6 | 115.32 | 101.97 | 94.67 | 87.02 | 98.99 | 106.96 | 99.64 | 111.02 | 91.71 | 94.31 | 95.05
